Measurements published in patent publication US20120108811A1, “PROCESS FOR PREPARING TEMOZOLOMIDE” (FORMOSA LABORATORIES INC., priority 2010, published 2012).

Key:
[1] = Long-term stability of Temozolomide prepared by the process of the present invention, 2-8° C.; type: physicochemical; conditions: process of the present invention, 2-8° C.
Experimental: The Temozolomide was stable at temperature 2-8° C. for at least 18 months.

[2] = Long-term stability of Temozolomide prepared by the process of the present invention, 25° C. ± 2° C., 60% ± 5% RH; type: physicochemical; conditions: for AICA NMT 0.15% / Appearance (White to off-white powder) / Assay (HPLC) (98.0-102.0%) / Purity (HPLC) NLT 99.0% / Total impurities NMT 1.00% / Water content (KF), NMT 1.00% / AHX NMT 0.15% / Individual unknown impurity NMT 0.10%: process of the present invention, 25° C. ± 2° C., RH 60% ± 5%
Excerpt: The Temozolomide was stable at temperature 25 degree ° C. for at least 18 months.

Cn1nnc2c(C(N)=O)ncn2c1=O [Temozolomide, 8-carbamoyl-3-methyl-imidazo[5,1-d]-1,2,3,5-tetrazin-4(3H)-one]
Water content (KF), NMT 1.00% ([1]; 1 month): 0.07% | AICA NMT 0.15% ([1]; 2 months): 0.01% | Appearance (White to off-white powder) ([1]; 2 months): White | Assay (HPLC) (98.0-102.0%) ([1]; 2 months): 99.3% | Purity (HPLC) NLT 99.0% ([1]; 2 months): 100.0% | Total impurities NMT 1.00% ([1]; 2 months): 0.01% | Water content (KF), NMT 1.00% ([1]; 2 months): 0.04% | AICA NMT 0.15% ([1]; 3 months): 0.09% | Appearance (White to off-white powder) ([1]; 3 months): White | Assay (HPLC) (98.0-102.0%) ([1]; 3 months): 99.6% | Purity (HPLC) NLT 99.0% ([1]; 3 months): 99.7% | Total impurities NMT 1.00% ([1]; 3 months): 0.09% | Water content (KF), NMT 1.00% ([1]; 3 months): 0.09% | Appearance (White to off-white powder) ([1]; 6 months): White | Assay (HPLC) (98.0-102.0%) ([1]; 6 months): 99.9% | Purity (HPLC) NLT 99.0% ([1]; 6 months): 100.0% | Water content (KF), NMT 1.00% ([1]; 6 months): 0.12% | AICA NMT 0.15% ([1]; 9 months): 0.01% | Appearance (White to off-white powder) ([1]; 9 months): White | Assay (HPLC) (98.0-102.0%) ([1]; 9 months): 100.8% | Purity (HPLC) NLT 99.0% ([1]; 9 months): 100.0% | Total impurities NMT 1.00% ([1]; 9 months): 0.01% | Water content (KF), NMT 1.00% ([1]; 9 months): 0.15% | AICA NMT 0.15% ([1]; 12 months): 0.02% | Appearance (White to off-white powder) ([1]; 12 months): Light pink | Assay (HPLC) (98.0-102.0%) ([1]; 12 months): 99.8% | Purity (HPLC) NLT 99.0% ([1]; 12 months): 100.0% | Total impurities NMT 1.00% ([1]; 12 months): 0.02% | Water content (KF), NMT 1.00% ([1]; 12 months): 0.06% | Appearance (White to off-white powder) ([1]; 18 months): White | Assay (HPLC) (98.0-102.0%) ([1]; 18 months): 99.8% | Purity (HPLC) NLT 99.0% ([1]; 18 months): 100.0% | Water content (KF), NMT 1.00% ([1]; 18 months): 0.16% | Time stable ([2]; prepared by the process of the present invention, temperature 25 degree ° C.): at least 18 months | AICA NMT 0.15% ([2]; 0 time): 0.01% | Appearance (White to off-white powder) ([2]; 0 time): White | Assay (HPLC) (98.0-102.0%) ([2]; 0 time): 99.7% | Purity (HPLC) NLT 99.0% ([2]; 0 time): 100.0% | Total impurities NMT 1.00% ([2]; 0 time): 0.01% | Water content (KF), NMT 1.00% ([2]; 0 time): 0.09% | AICA NMT 0.15% ([2]; 1 month): 0.01% | Appearance (White to off-white powder) ([2]; 1 month): White | Assay (HPLC) (98.0-102.0%) ([2]; 1 month): 100.0% | Purity (HPLC) NLT 99.0% ([2]; 1 month): 100.0% | Total impurities NMT 1.00% ([2]; 1 month): 0.01% | Water content (KF), NMT 1.00% ([2]; 1 month): 0.12% | AICA NMT 0.15% ([2]; 2 months): 0.01% | Appearance (White to off-white powder) ([2]; 2 months): White | Assay (HPLC) (98.0-102.0%) ([2]; 2 months): 99.4% | Purity (HPLC) NLT 99.0% ([2]; 2 months): 100.0% | Total impurities NMT 1.00% ([2]; 2 months): 0.01% | Water content (KF), NMT 1.00% ([2]; 2 months): 0.04% | AHX NMT 0.15% ([2]; 3 months): 0.01% | AICA NMT 0.15% ([2]; 3 months): 0.11% | Appearance (White to off-white powder) ([2]; 3 months): White | Assay (HPLC) (98.0-102.0%) ([2]; 3 months): 99.4% | Purity (HPLC) NLT 99.0% ([2]; 3 months): 99.7% | Total impurities NMT 1.00% ([2]; 3 months): 0.11% | Water content (KF), NMT 1.00% ([2]; 3 months): 0.11% | Appearance (White to off-white powder) ([2]; 6 months): White | Assay (HPLC) (98.0-102.0%) ([2]; 6 months): 99.3% | Purity (HPLC) NLT 99.0% ([2]; 6 months): 100.0% | Water content (KF), NMT 1.00% ([2]; 6 months): 0.13% | AICA NMT 0.15% ([2]; 9 months): 0.02% | Appearance (White to off-white powder) ([2]; 9 months): White | Assay (HPLC) (98.0-102.0%) ([2]; 9 months): 100.8% | Purity (HPLC) NLT 99.0% ([2]; 9 months): 99.9% | Total impurities NMT 1.00% ([2]; 9 months): 0.02% | Water content (KF), NMT 1.00% ([2]; 9 months): 0.17% | AHX NMT 0.15% ([2]; 12 months): 0.01% | AICA NMT 0.15% ([2]; 12 months): 0.02% | Appearance (White to off-white powder) ([2]; 12 months): Light pink | Assay (HPLC) (98.0-102.0%) ([2]; 12 months): 99.8% | Individual unknown impurity NMT 0.10% ([2]; 12 months): 0.01% | Purity (HPLC) NLT 99.0% ([2]; 12 months): 99.9% | Total impurities NMT 1.00% ([2]; 12 months): 0.04% | Water content (KF), NMT 1.00% ([2]; 12 months): 0.04% | AICA NMT 0.15% ([2]; 18 months): 0.01% | Appearance (White to off-white powder) ([2]; 18 months): White | Assay (HPLC) (98.0-102.0%) ([2]; 18 months): 99.4% | Individual unknown impurity NMT 0.10% ([2]; 18 months): 0.01% | Purity (HPLC) NLT 99.0% ([2]; 18 months): 100.0% | Total impurities NMT 1.00% ([2]; 18 months): 0.02% | Water content (KF), NMT 1.00% ([2]; 18 months): 0.07%
